According to patent publication US20080146612A1, “Novel Biaromatic Compounds, Inhibitors of the P2X7-Receptor” (ASTRAZENECA AB, priority 2005, published 2008):

Biological target: T1, P2X7 receptor (Homo sapiens, UniProt Q99572)
T1 construct: 200 μl of a suspension of THP-1 cells; endogenous in cells; host or cells: THP-1 cells
T1 sequence (Q99572 1-595): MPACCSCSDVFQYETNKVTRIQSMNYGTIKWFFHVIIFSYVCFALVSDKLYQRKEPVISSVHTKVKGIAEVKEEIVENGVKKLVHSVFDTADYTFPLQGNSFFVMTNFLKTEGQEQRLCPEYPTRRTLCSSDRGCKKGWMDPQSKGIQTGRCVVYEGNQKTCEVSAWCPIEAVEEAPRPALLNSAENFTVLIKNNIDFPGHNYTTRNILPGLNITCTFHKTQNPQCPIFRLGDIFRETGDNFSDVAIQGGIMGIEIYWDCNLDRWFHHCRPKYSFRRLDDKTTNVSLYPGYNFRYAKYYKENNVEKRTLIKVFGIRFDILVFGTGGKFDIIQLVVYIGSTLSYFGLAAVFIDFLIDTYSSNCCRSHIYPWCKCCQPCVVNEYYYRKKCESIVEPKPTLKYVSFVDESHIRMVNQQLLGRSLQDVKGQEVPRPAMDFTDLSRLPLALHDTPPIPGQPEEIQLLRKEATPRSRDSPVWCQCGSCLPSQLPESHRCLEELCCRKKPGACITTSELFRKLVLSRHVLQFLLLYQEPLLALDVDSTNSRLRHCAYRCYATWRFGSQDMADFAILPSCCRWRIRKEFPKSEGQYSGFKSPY
Test: P2X7 receptor antagonist test: bbATP-induced ethidium bromide fluorescence in THP-1 cells
Format: cell-based
Settings: negative logarithm of the concentration of test compound necessary to reduce the bbATP agonist activity by 50%, 10^-5M bbATP solution, 37° C. for one hour
From the text: Certain compounds such as benzoylbenzoyl adenosine triphosphate (bbATP) are known to be agonists of the P2X7 receptor, effecting the formation of pores in the plasma membrane (Drug Development Research (1996), 37(3), p. 126). Consequently, when the receptor is activated using bbATP in the presence of ethidium bromide (a fluorescent DNA probe), an increase in the fluorescence of intracellular DNA-bound ethidium bromide is observed. The increase in fluorescence can be used as a measure of P2X7 receptor activation and therefore to quantif the effect of a compound on the P2X7 receptor.
In this manner, each of the title compounds of the Examples was tested for antagonist activity at the P2X7 receptor. Thus, the test was performed in 96-well flat bottomed microtitre plates, the wells being filled with 250 μl of test solution comprising 200 μl of a suspension of THP-1 cells (2.5×10^6 cells/ml) containing 10^−4M ethidium bromide, 25 μl of a high potassium buffer solution containing 10^−5M bbATP, and 25 μl of the high potassium buffer solution containing concentrations of test compound typically from 30 μM-0.001 μM. The plate was covered with a plastics sheet and incubated at 37° C. for one hour. The plate was then read in a Perkin-Elmer fluorescent plate reader, excitation 520 nm, emission 595 nm, slit widths: Ex 15 nm, Em 20 nm. […]

Row | SMILES | IC50
1 | O=C(NCC1(O)CCCCCC1)c1cc(-c2ccccc2C(=O)O)ccc1Cl [Example 2, 4′-Chloro-3′-[[[(1-hydroxycycloheptyl)methyl]amino]carbonyl]-[1,1′-biphenyl]-2-carboxylic acid] | 63.1 nM
2 | O=C(NCC1CCCCCC1)c1cc(-c2cccnc2N2CCC(C(=O)O)CC2)ccc1Cl [Example 26, 1-[3-[4-Chloro-3-[[(cycloheptylmethyl)amino]carbonyl]phenyl]-2-pyridinyl]-4-piperidinecarboxylic acid] | 100 nM

System: not given
Test: not given
Settings: not given

Row | SMILES | melting point
3 | CC1(CNC(=O)c2cc(-c3ccccc3C(=O)O)ccc2Cl)CCCCCC1 [Example 13, 4′-Chloro-3′-[[[(1-methylcycloheptyl)methyl]amino]carbonyl]-[1,1′-biphenyl]-2-carboxylic acid] | 180 to 183 °C
4 | O=C(NCCC1CCCCC1)c1cc(-c2ccccc2C(=O)O)ccc1Cl [Example 9, 4′-Chloro-3′-[[(2-cyclohexylethyl)amino]carbonyl]-[1,1′-biphenyl]-2-carboxylic acid] | 191 to 193 °C
5 | O=C(NCC1(CO)CCCCCC1)c1cc(-c2ccccc2C(=O)O)ccc1Cl [Example 14, 4′-Chloro-3′-[[[[1-(hydroxymethyl)cycloheptyl]methyl]amino]carbonyl]-[1,1′-biphenyl]-2-carboxylic acid] | 175 to 177 °C
6 | O=C(NCC1CCCCCC1)c1cc(-c2cccnc2C(=O)O)ccc1Cl [Example 10, 3-[4-Chloro-3-[[(cycloheptylmethyl)amino]carbonyl]phenyl]-2-pyridinecarboxylic acid] | 166 to 168 °C
7 | O=C(NCC1(O)CCCCCC1)c1cc(-c2cccnc2N2CCC(C(=O)O)CC2)ccc1Cl [Example 27, 1-[3-[4-Chloro-3-[[[(1-hydroxycycloheptyl)methyl]amino]carbonyl]phenyl]-2-pyridinyl]-4-piperidinecarboxylic acid] | 117 to 119 °C
8 | O=C(NCCC1CCCCC1)c1cc(-c2cccnc2N2CCC(C(=O)O)CC2)ccc1Cl [Example 25, 1-[3-[4-Chloro-3-[[(2-cyclohexylethyl)amino]carbonyl]phenyl]-2-pyridinyl]-4-piperidinecarboxylic acid] | 116 to 120 °C
9 | O=C(NCC1(O)CCCCCC1)c1cc(-c2ccc(Cl)c(C(=O)O)n2)ccc1Cl [Example 24, 3-Chloro-6-[4-chloro-3-[[[(1-hydroxycycloheptyl)methyl]amino]carbonyl]phenyl]-2-pyridinecarboxylic acid] | 146 to 149 °C
10 | C[C@@H](NC(=O)c1cc(-c2ccccc2C(=O)O)ccc1Cl)C1CCCCC1 [Example 12, 4′-Chloro-3′-[[[(1R)-1-cyclohexylethyl]amino]carbonyl]-[1,1′-biphenyl]-2-carboxylic acid] | 139 to 141 °C
11 | O=C(NCCc1ccccc1Cl)c1cc(-c2ccccc2C(=O)O)ccc1Cl [Example 1, 4′-Chloro-3′-[[[2-(2-chlorophenyl)ethyl]amino]carbonyl]-[1,1′-biphenyl]-2-carboxylic acid] | 136 to 140 °C (dec.)
12 | O=C(NCC1CCCCCC1)c1cc(-c2ncc(Cl)cc2C(=O)O)ccc1Cl [Example 20, 5-Chloro-2-[4-chloro-3-[[(cycloheptylmethyl)amino]carbonyl]phenyl]-3-pyridinecarboxylic acid] | 176 to 179 °C
13 | O=C(NCCC1CCCCC1)c1cc(-c2ccc(Cl)c(C(=O)O)n2)ccc1Cl [Example 22, 3-Chloro-6-[4-chloro-3-[[(2-cyclohexylethyl)amino]carbonyl]phenyl]-2-pyridinecarboxylic acid] | 189 to 190 °C
14 | C[C@H](CNC(=O)c1cc(-c2ccccc2C(=O)O)ccc1Cl)c1ccccc1 [Example 4, 4′-Chloro-3′-[[[(2S)-2-phenylpropyl]amino]carbonyl]-[1,1′-biphenyl]-2-carboxylic acid] | 160 to 162 °C
15 | Cc1ccc(-c2ccccc2C(=O)O)cc1C(=O)NCC1CCCCCC1 [Example 16, 3′-[[(Cycloheptylmethyl)amino]carbonyl]-4′-methyl-[1,1′-biphenyl]-2-carboxylic acid] | 188 to 189 °C
16 | O=C(NCC1CCCCCC1)c1cc(-c2ccccc2C(=O)O)ccc1Cl [Example 6, 4′-Chloro-3′-[[(cycloheptylmethyl)amino]carbonyl]-[1,1′-biphenyl]-2-carboxylic acid] | 201 to 203 °C
17 | O=C(NCC1CCCCC1)c1cc(-c2ccccc2C(=O)O)ccc1Cl [Example 3, 4′-Chloro-3′-[[(cyclohexylmethyl)amino]carbonyl]-[1,1′-biphenyl]-2-carboxylic acid] | 212 to 214 °C
18 | O=C(NCC1(O)CCCCC1)c1cc(-c2ccccc2C(=O)O)ccc1Cl [Example 7, 4′-Chloro-3′-[[[(1-hydroxycyclohexyl)methyl]amino]carbonyl]-[1,1′-biphenyl]-2-carboxylic acid] | 202 to 204 °C
19 | CC1(C)[C@H]2CC[C@@H](CNC(=O)c3cc(-c4ccccc4C(=O)O)ccc3Cl)[C@@H]1C2 [Example 5, 4′-Chloro-3′-[[[[(1S,2R,5S)-6,6-dimethylbicyclo[3.1.1]hept-2-yl]methyl]amino]car-bonyl]-[1,1′-biphenyl]-2-carboxylic acid] | 170 to 172 °C
20 | O=C(NCCC1CCCCC1)c1cc(-c2cccnc2C(=O)O)ccc1Cl [Example 11, 3-[4-Chloro-3-[[(2-cyclohexylethyl)amino]carbonyl]phenyl]-2-pyridinecarboxylic acid] | 104 to 107 °C
21 | O=C(NCCC1CCCCC1)c1cc(-c2ncc(Cl)cc2C(=O)O)ccc1Cl [Example 19, 5-Chloro-2-[4-chloro-3-[[(2-cyclohexylethyl)amino]carbonyl]phenyl]-3-pyridinecarboxylic acid] | 208 to 211 °C
22 | O=C(NCC1CCCCCC1)c1cc(-c2ccc(Cl)c(C(=O)O)n2)ccc1Cl [Example 23, 3-Chloro-6-[4-chloro-3-[[(cycloheptylmethyl)amino]carbonyl]phenyl]-2-pyridinecarboxylic acid] | 189 to 190 °C
23 | O=C(NC[C@@H]1CCCCC[C@@H]1O)c1cc(-c2ccccc2C(=O)O)ccc1Cl (relative stereo) [Example 8, 4′-Chloro-3′-[[[[cis-2-hydroxycycloheptyl]methyl]amino]carbonyl]-[1,1′-biphenyl]-2-carboxylic acid] | 193 to 195 °C
24 | O=C(NCC1(O)CCCCCC1)c1cc(-c2ncc(Cl)cc2C(=O)O)ccc1Cl [Example 21, 5-Chloro-2-[4-chloro-3-[[[(1-hydroxycycloheptyl)methyl]amino]carbonyl]phenyl]-3-pyridinecarboxylic acid] | 201 to 204 °C
25 | Cc1ccc(-c2ccc(Cl)c(C(=O)O)n2)cc1C(=O)NCC1CCCCCC1 [Example 18, 3-Chloro-6-[3-[[(cycloheptylmethyl)amino]carbonyl]-4-methylphenyl]-2-pyridinecarboxylic acid] | 177 to 178 °C
